Experimental data as given in PubChem BioAssay (NCI).
“And” between values parts separate entries of the source, which are not always exact repeats. Equal values may be shown once.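 48-hour exposure; five concentrations; linearly interpolated endpoints. The concentration for 50% growth inhibition is given as GI50. TGI: total growth inhibition.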

Assays:
Assay in all cases: NCI anticancer screen, dose series, 48 h
SF-295 CNS = test system: SF-295 CNS
NCI-H460 lung = test system: NCI-H460 lung
SF-539 CNS = test system: SF-539 CNS
HCT-116 colon = test system: HCT-116 colon
UACC-257 melanoma = test system: UACC-257 melanoma
SK-OV-3 ovarian = test system: SK-OV-3 ovarian
SR leukemia = test system: SR leukemia
RXF 393 renal = test system: RXF 393 renal
HOP-62 NSCLC = test system: HOP-62 NSCLC
SK-MEL-5 melanoma = test system: SK-MEL-5 melanoma

| SMILES | GI50 (SF-295 CNS) [µM] | TGI (SF-295 CNS) [µM] | GI50 (NCI-H460 lung) [µM] | TGI (NCI-H460 lung) [µM] | GI50 (SF-539 CNS) [µM] | TGI (SF-539 CNS) [µM] | GI50 (HCT-116 colon) [µM] | TGI (HCT-116 colon) [µM] | GI50 (UACC-257 melanoma) [µM] | TGI (UACC-257 melanoma) | GI50 (SK-OV-3 ovarian) [µM] | TGI (SK-OV-3 ovarian) [µM] | GI50 (SR leukemia) [µM] | TGI (SR leukemia) [µM] | GI50 (RXF 393 renal) [µM] | TGI (RXF 393 renal) [µM] | GI50 (HOP-62 NSCLC) [µM] | TGI (HOP-62 NSCLC) [µM] | GI50 (SK-MEL-5 melanoma) [µM] | TGI (SK-MEL-5 melanoma) |
| --- | --- | --- | --- | --- | --- | --- | --- | --- | --- | --- | --- | --- | --- | --- | --- | --- | --- | --- | --- | --- |
| COc1cc2c(cc1-c1c(C)noc1C)ncc1[nH]c(=O)n([C@H](C)c3ccccn3)c12 | 0.649 | 57.4 | 11.2 | > 100 | 0.677 | > 100 | 1.94 | > 100 | 0.415 | > 100 µM | 0.6 | > 50.1 | 0.0756 | > 100 | 3.3 | > 32.1 | 0.94 | > 100 | 2.77 | > 44 µM |
| CN(Cc1ccccc1)c1nc(=[N+](C)C)ss1 |  | > 100 |  | > 100 |  | > 100 |  | > 100 |  | > 100 µM |  | > 100 |  | > 100 |  | > 100 |  | > 100 |  | > 100 µM |
| c1ccc([P+](CCC[P+](c2ccccc2)(c2ccccc2)c2ccccc2)(c2ccccc2)c2ccccc2)cc1 | 16.2 | > 100 | 9.03 | > 100 | 15.1 | > 100 | 7.27 | > 100 | 2.77 | > 100 µM and 41.1 µM | 69.1 | > 100 | 4.82 | > 100 |  | > 100 | 18 | > 100 | 6.8 | 74.1 µM and 38.7 µM |
| CCN1CCN(c2cc(C)nc(NCc3cc(Nc4ccnc5cc(Cl)ccc45)ccc3F)n2)CC1 | 2.05 | 5.96 | 2.83 | 12.1 | 1.72 | 3.42 | 1.2 | 4.1 | 2.17 | 4.33 µM | 27.6 | 69.3 | 2.14 | 9.3 | 1.86 | 4.19 | 3.59 | 24.1 | 1.55 | 2.99 µM |
| C[C@@H]1CCC2[C@@H](C)[C@H](OC(=O)CCC(=O)NCCNC(=O)Cc3cc(=O)oc4cc(N(C)C)ccc34)O[C@@H]3O[C@]4(C)CC[C@@H]1C23OO4 (some centres undefined) | 2.04 | > 100 | 2.43 | 19.2 | 3.22 | 24.3 | 0.323 | 12.8 | 4.04 | > 100 µM | 29 | > 100 | 0.561 | 6.83 | 3.45 | 43.2 | 12.5 | > 62 | 1.48 | > 39.3 µM |
| Cc1[nH]ccc2cc3nc4ccccc4c3cc12 | 1.96 | 6.79 | 1.39 | 3.52 | 3.07 | 12.6 | 0.667 | 2.38 | 3.35 | 12.8 µM | 5.42 | 18.1 | 1.13 | 3.53 | 1.74 | 3.91 | 2.79 | 12.8 | 3.28 | 13.6 µM |
| CC(=O)NNc1nc(C)c(C(/C=C/c2ccc(Cl)cc2)=N/NC(=S)NN)s1 |  | > 100 |  | > 100 |  | > 100 |  | > 100 |  | > 100 µM |  | > 100 |  | > 100 |  | > 100 |  | > 100 |  | > 100 µM |
| CC(=O)OC1C/C(C)=C/[C@H](O)CC(C)/C=C/[C@@]2(C)CCC(C(C)(C)O)C12 (some centres undefined) |  | > 100 |  | > 100 |  | > 100 |  | > 100 |  | > 100 µM |  | > 100 |  | > 100 |  | > 100 |  | > 100 |  | > 100 µM |
| C=CC1=C(C)C(Cc2[nH]c(/C=c3\[nH]/c(=C/C4=NC(=O)C(C)/C4=C\C)c(C)c3CCC(=O)O)c(CCC(=O)OC)c2C)NC1=O (centres undefined) | 37.8 | > 100 | 21.7 | > 100 | 25.1 | 54.4 | 19.8 | 36.9 | 7.9 | 41.1 µM | 27.9 | 78.2 | 20 | 46 | 21.4 | 44 | 26.4 | 62.4 | 19.9 | 37.4 µM |
| O=C1/C(=C/c2ccc(C(F)(F)F)cc2)COc2ccc(O)cc21 | 12.1 | 24.9 | 3.24 | 10.4 | 1.68 | 3.3 | 1.77 | 3.42 | 8.06 | 20.9 µM | 16.2 | 29.7 | 1.21 | 10.6 | 1.74 | 3.48 | 12.8 | 25.4 | 1.97 | 4.38 µM |
| CCOC(CN(C)C(=O)OCC(Cl)(Cl)Cl)OCC |  | > 100 |  | > 100 |  | > 100 |  | > 100 |  | > 100 µM |  | > 100 |  | > 100 |  | > 100 |  | > 100 |  | > 100 µM |
| O=C(O)CCc1nc(-c2ccccc2)c(-c2ccccc2)o1 |  | > 100 |  | > 100 |  | > 100 |  | > 100 |  | > 100 µM |  | > 100 |  | > 100 |  | > 100 |  | > 100 |  | > 100 µM |
